The results in this text go back to patent publication US9447116B2, “Inhibitors of HIV replication” (priority 2010, dated 2016).

Assay [1] deals with T1, LEDGF-Integrase interaction (Human immunodeficiency virus type 1 group M subtype B, UniProt P12497).
T1 construct: His6-tagged integrase (78 nM final concentration); purchased Prof; Zeger Debyser, Katholieke Universiteit Leuven (supplied by an academic laboratory, not a commercial vendor)
In words: HTRF Interaction assay (S9118). Further details: species or system HIV. Particulars: His6-tagged integrase and MBP-LEDGF integrase binding domain. An excerpt: • Adachi, A., Gendelman, H., Koenig, S., Folks, T., Wiley, R., Rabson, A. and Martin, M (1986) Production of acquired immunodeficency syndrome-associated retrovirus in human and nonhuman cells transfected with an infectious molecular clone, J. Virol., 59, 284-291. • Cao J, Isaacson J, Patick A K, Blair W S. (2005) High-throughput human immunodeficiency virus type 1 (HIV-1) full replication assay that includes HIV-1 Vif as an antiviral target Antimicrobial Agents and Chemotherapy; 49(9), p 3833-3841. Assay to Measure the LEDGF-Integrase Integration Inhibitory Activity of Compounds of the Invention HTRF Interaction Assay (S9118)
An Homogeneous Time Resolved Fluorescence (HTRF) assay is performed in a manner similar to previous reports on HTRF protein assays as reviewed by Mathis (Clin. Chem., 2005). The assay procedure is performed as follows: reactions are performed in 20 μl final volume in 384-well black low volume microtiter plates (Greiner). The final reaction buffer contains 29 mM phosphase buffer (pH 7), 10 mM HEPES buffet (pH 7.4), 68.5 mM NaCl, 1.4 mM KCl, 400 mM KF 0.05% (w/v) pluronic acid (P104, Sigma Aldrich) and 1% (v/v) DMSO. His6-tagged integrase (78 nM final concentration) is incubated with […] fused to the Δ325 carboxy terminal integrase binding domain of LEDGF in the presence of compound for 2 hours at room temperature. Both these protein regents are supplied by Prof. Zeger Debyser of Katholleke Universiteit Leuven, Leuven, Belgium. The compounds are added at varying concentrations spanning a wide range from 0.1 up to 100 μM. Afterwards 8.3 nM of europium cryptate conjugated anti-MBP monoclonal antibody and 17 nM anti-His antibody conjugated with the acceptor fluorophore d2. Following a 2 hour room temperature incubation the plates are read on an EnVision™ microplate reader (Perkin Elmer) using an excitation wavelength of 320 nm. The ratio of fluorescence emitted at […] is used to assess the degree to which the protein-protein interaction had been inhibited.
Background: TR-FRET usually uses a lanthanide donor and a delayed reading to cut background.

Assay [2] relates to HIV-1 virus (NL4.3 strain). In words: MT-2 based antiviral assay (S8737E). The assay is classed as cell-based. Particulars: Human immunodeficiency virus 1, 72 h, read-out: Antiviral Activity (S8737E, μM), HIV-1 NL4.3 replication in MT2 cells, 3 days, β-Gal readout in JC53BL cells. The source says: MT-2 Based Antiviral Assay (S8737E)
This assay is designed to determine the effects of small molecules on the replication of HIV-1 in the lymphobastoid cell line, MT2, and is able to detect the antiviral effect of compounds acting at any stage of the HIV-1 replication cycle. The assay, along with its associated cytotoxicity assay, was described in detail in 2005 in a paper by Cao et al (Antimicrobial Agents and Chemotherapy 2005; 49(9), p 3833-3841).
MT2 cells are infected with the HIV-1 virus (NL4.3 strain; Adachi et al., Journal of Virology 1986) and transferred to assay plates containing serial dilutions of compounds to be tested. The assay plates are incubated for 3 days (MT2) to allow for several rounds of viral replication/infection to take place. At the end of this time, supernatant is transferred into new plates containing JC53BL cells.
JC53BL cells express CXCR4, CCR5 and CD4 receptors, and HIV-1-LTR-β-Gal. Under normal culture conditions undetectable levels of β-Galactosidase are expressed, but in the presence of HIV-1, the viral Tat protein is able to activate the HIV-1-LTR in the JC53BL cells resulting in the increased expression of the β-Gal enzyme. The expression can be measured using the ‘FluorAce β-Galactosidase reporter’ assay. The levels of β-Gal are directly proportional to the levels of Tat (up to a threshold) allowing virus quantification. Compounds that inhibit virus replication will give rise to a reduced signal and a dose-response curve for each compound can be generated. This is then used to determine the IC50 for each compound, a measure of the compound's potency.

Some results are limits rather than exact numbers.

Turning to `Cc1nc2sc3c(c2c(-c2ccc(C#N)cc2)c1C(OC(C)(C)C)C(=O)O)CCCC3` (stereo not drawn) [Example 15], the IC50 in assay [1] (table values) was 14.8 µM; in assay [2] it was 1.28 µM.

For the molecule `CCOC(C(=O)O)c1c(C)nc2sc3c(c2c1-c1ccc(C(F)(F)F)nc1)CCCC3` (stereo not drawn) [Example 33], the IC50 in assay [1] (table values) is more than 100 µM; in assay [2] it was 8.19 µM.

For the molecule `Cc1nc2sc3c(c2c(-c2ccc4cn[nH]c4c2)c1C(OC(C)(C)C)C(=O)O)CCCC3` (stereo not drawn) [Example 6], the values for the IC50 in assay [1] (table values) and in assay [2] were 2.63 µM and 0.305 µM, respectively.

In the case of `Cc1nc2sc3c(c2c(-c2ccc4scnc4c2)c1C(OC(C)(C)C)C(=O)O)CCCC3` (stereo not drawn) [Example 4], the IC50 in assay [1] (table values) came to 3.48 µM; in assay [2] it was 0.282 µM.

Take `Cc1ccc(-c2c([C@H](OC(C)(C)C)C(=O)O)c(C)nc3sc4c(c23)CCCC4)c(F)c1` [Example 47, (2S)-tert-butoxy[4-(2-fluoro-4-methylphenyl)-2-methyl-5,6,7,8-tetrahydro[1]benzothieno[2,3-b]pyridin-3-yl]acetic acid]: the IC50 in assay [1] is 0.657 µM; in assay [2], 0.071 µM.

As to `Cc1nc2sc3c(c2c(-c2ccc(Cl)cc2O)c1[C@H](OC(C)(C)C)C(=O)O)CCCC3` (single isomer, unassigned) [Atropisomer 46A], the IC50 stood at 0.558 µM in assay [1] and 0.014 µM in assay [2].

With `Cc1nc2cc(-c3c(C(OC(C)(C)C)C(=O)O)c(C)nc4sc5c(c34)CCCC5)ccc2s1` (stereo not drawn) [Example 20], the IC50 in assay [1] (table values) is 11.8 µM; in assay [2] it was 2.01 µM.

As for `CCOC(C(=O)O)c1c(C)nc2sc3c(c2c1-c1ccc2nsnc2c1)CCCC3` (stereo not drawn) [Example 21], the IC50 in assay [1] (table values) was 64.8 µM; in assay [2], 2.17 µM.

As to `Cc1nc2sc3c(c2c(-c2cnc4cc[nH]c4c2)c1C(OC(C)(C)C)C(=O)O)CCCC3` (stereo not drawn) [Example 30], the IC50 was 15.5 µM in assay [1] (table values) and 6.63 µM in assay [2].

For the molecule `Cc1nc2sc3c(c2c(-c2ccc4[nH]ncc4c2)c1C(OC(C)(C)C)C(=O)O)CCCC3` (stereo not drawn) [Example 32], the values for the IC50 in assay [1] (table values) and in assay [2] were more than 100 µM and 7.65 µM, respectively.

With `Cc1nc2sc3c(c2c(-c2cccc(CO)c2)c1C(OC(C)(C)C)C(=O)O)CCCC3` (stereo not drawn) [Example 27], the values for the IC50 in assay [1] (table values) and in assay [2] were 57.5 µM and 4.64 µM, respectively.

For the molecule `CCn1cc(-c2c(C(OC(C)(C)C)C(=O)O)c(C)nc3sc4c(c23)CCCC4)cn1` (stereo not drawn) [Example 8], the IC50 in assay [1] (table values) turned out to be 23.8 µM; in assay [2], 0.624 µM.

With `COc1ncc(-c2c(C(OC(C)(C)C)C(=O)O)c(C)nc3sc4c(c23)CCCC4)cn1` (stereo not drawn) [Example 39], the IC50 in assay [1] (table values) was more than 100 µM; in assay [2], 15.5 µM.

Regarding `Cc1nc2ccc(-c3c(C(OC(C)(C)C)C(=O)O)c(C)nc4sc5c(c34)CCCC5)cc2s1` (stereo not drawn) [Example 22], the IC50 in assay [1] (table values) amounted to 12.8 µM; in assay [2], 2.73 µM.

For the molecule `Cc1ccc(-c2c([C@@H](OC(C)(C)C)C(=O)O)c(C)nc3sc4c(c23)CCCC4)c(O)c1` (single isomer, unassigned) [48, first eluting enantiomer], the figures for the IC50 in assay [1] and in assay [2] were 4.12 µM and 0.089 µM, respectively.

In the case of `COc1ccc(-c2c(C(OC(C)(C)C)C(=O)O)c(C)nc3sc4c(c23)CCCC4)cn1` (stereo not drawn) [Example 7], the IC50 came to 9.25 µM in assay [1] (table values) and 0.436 µM in assay [2].

On to `Cc1nc2sc3c(c2c(-c2cncnc2)c1C(OC(C)(C)C)C(=O)O)CCCC3` (stereo not drawn) [Example 1, Tert-butoxy(2-methyl-4-pyrimidin-5-yl-5,6,7,8-tetrahydro[1]benzothieno[2,3-b]pyridin-3-yl)acetic acid], for which, in assay [2], the IC50 is more than 20 µM.

With `CCOC(C(=O)O)c1c(C)nc2sc3c(c2c1-c1ccc2cnn(C)c2c1)CCCC3` (stereo not drawn) [Example 35], the IC50 in assay [1] (table values) was more than 100 µM; in assay [2], 10.7 µM.

Turning to `Cc1cc(C)n(-c2cccc(-c3c(C(OC(C)(C)C)C(=O)O)c(C)nc4sc5c(c34)CCCC5)c2)n1` (stereo not drawn) [Example 28], the IC50 amounted to 29.6 µM in assay [1] (table values) and 5.61 µM in assay [2].

Take `CCOC(C(=O)O)c1c(C)nc2sc3c(c2c1-c1ccccc1O)CCCC3` (stereo not drawn) [Example 25]: the figures for the IC50 in assay [1] (table values) and in assay [2] were more than 100 µM and 4.07 µM, respectively.

In the case of `Cc1nc2sc3c(c2c(-c2cccc4c2cnn4C)c1C(OC(C)(C)C)C(=O)O)CCCC3` (stereo not drawn) [Example 24], the figures for the IC50 in assay [1] (table values) and in assay [2] were 7.59 µM and 2.81 µM, respectively.

As to `COc1cc(-c2c(C(OC(C)(C)C)C(=O)O)c(C)nc3sc4c(c23)CCCC4)ccn1` (stereo not drawn) [Example 14], the IC50 came out at 28.4 µM in assay [1] (table values) and 1.24 µM in assay [2].

In the case of `Cc1nc2sc3c(c2c(-c2ccc(Cl)cc2)c1[C@H](OC(C)(C)C)C(=O)O)CCCC3` [Example 44, (2S)-tert-butoxy[4-(4-chlorophenyl)-2-methyl-5,6,7,8-tetrahydro[1]benzothieno[2,3-b]pyridin-3-yl]acetic acid], the IC50 was 0.576 µM in assay [1] and 0.036 µM in assay [2].

As to `Cc1nc2sc3c(c2c(-c2ccccc2CO)c1C(OC(C)(C)C)C(=O)O)CCCC3` (stereo not drawn) [Example 13], the results for the IC50 in assay [1] (table values) and in assay [2] were 56.3 µM and 0.957 µM, respectively.

For `Cc1nc2sc3c(c2c(-c2ccc4c(cnn4C)c2)c1C(OC(C)(C)C)C(=O)O)CCCC3` (stereo not drawn) [Example 12], the results for the IC50 in assay [1] (table values) and in assay [2] were 5.13 µM and 0.941 µM, respectively.

For the molecule `Cc1nc2sc3c(c2c(-c2ccc(C(F)(F)F)nc2)c1C(OC(C)(C)C)C(=O)O)CCCC3` (stereo not drawn) [Example 9], the figures for the IC50 in assay [1] (table values) and in assay [2] were 11.7 µM and 0.683 µM, respectively.

Turning to `Cc1nc2sc3c(c2c(-c2cccc(C#N)c2)c1C(OC(C)(C)C)C(=O)O)CCCC3` (stereo not drawn) [Example 26], the IC50 in assay [1] (table values) is more than 100 µM; in assay [2] it was 4.51 µM.

Turning to `Cc1nc2sc3c(c2c(-c2ccc(Br)cc2)c1[C@H](OC(C)(C)C)C(=O)O)CCCC3` [Example 51, (S)-2-(4-(4-bromophenyl)-2-methyl-5,6,7,8-tetrahydrobenzo[4,5]thieno[2,3-b]pyridin-3-yl)-2-(tert-butoxy)acetic acid], the figures for the IC50 in assay [1] and in assay [2] were 1.16 µM and 0.08 µM, respectively.

Regarding `CCOC(C(=O)O)c1c(C)nc2sc3c(c2c1-c1ccc(OC)nc1)CCCC3` (stereo not drawn) [Example 42], the IC50 was more than 100 µM in assay [1] (table values) and 18.1 µM in assay [2].

For the molecule `Cc1nc2sc3c(c2c(-c2ccc4cnn(C)c4c2)c1C(OC(C)(C)C)C(=O)O)CCCC3` (stereo not drawn) [Example 10], the IC50 turned out to be 7.87 µM in assay [1] (table values) and 0.795 µM in assay [2].

For `Cc1nc2sc3c(c2c(-c2cccc(-c4nccn4C)c2)c1C(OC(C)(C)C)C(=O)O)CCCC3` (stereo not drawn) [Example 19], the IC50 in assay [1] (table values) stood at 46.5 µM; in assay [2], 1.9 µM.

For `Cc1ccc(-c2c(C(OC(C)(C)C)C(=O)O)c(C)nc3sc4c(c23)CCCC4)c(O)c1` (single isomer, unassigned) [48, second eluting enantiomer], the IC50 in assay [1] worked out at 0.576 µM; in assay [2] it was 0.013 µM.

Turning to `Cc1nc2sc3c(c2c(-c2ccc(Cl)cc2F)c1[C@H](OC(C)(C)C)C(=O)O)CCCC3` [Example 45, (2S)-tert-butoxy[4-(4-chloro-2-fluorophenyl)-2-methyl-5,6,7,8-tetrahydro[1]benzothieno[2,3-b]pyridin-3-yl]acetic acid], the IC50 in assay [1] amounted to 0.565 µM; in assay [2] it was 0.023 µM.

Regarding `CCOC(C(=O)O)c1c(C)nc2sc3c(c2c1-c1ccccc1CO)CCCC3` (stereo not drawn) [Example 34], the IC50 was more than 100 µM in assay [1] (table values) and 8.97 µM in assay [2].

Consider `Cc1nc2sc3c(c2c(-c2ccc(C(F)F)cc2)c1[C@H](OC(C)(C)C)C(=O)O)CCCC3` [Example 49], for which the IC50 in assay [1] turned out to be 11 µM; in assay [2], 0.081 µM.
